Laboratory results reported in US6376522B1, “4-hydroxyisothiazole compounds” (Ciba Specialty Chemicals Corporation, priority 1999, dated 2002).
Converted amounts (≈) assume the structure as drawn. Read-outs that look alike come from different tables or passages of the source.

Tests used:
Test in all cases: Agar incorporation test, MIC
Assay type in all cases: cell-based
[1] = system: Staphylococcus aureus ATCC 6538
Description: (§1) An agar incorporation test is carried out to determine the MIC (Minimum Inhibitory Concentration [ppm]) of the compound of formula (101): […]
(§2) The test substances are dissolved in Ethanol, and a dilution series of the compound of the formula […] in agar are prepared.
(§3) Anaerobic bacteria and dermatophytes are cultivated on agar-plates, and washes off with Mueller-Hinton bouillon. Aerobic bacteria are cultivated in Mueller-Hinton bouillon overnight. The test germ suspension are diluted with Mueller-Hinton bouillon to a density of McFarland standard 0.5.
(§4) 10 μl of each germ suspension is dropped onto the agar plates containing the test substance, and the plates are then incubated at 36° C. for 2 to 3 days. (Aerobic bacteria are incubated at 36° C. for 48 hours, anaerobic bacteria are incubated at 30° C. for 72 hours). As controls, the bacterial suspensions are applied to agar plates without test substances. In order to exclude the solvent ethanol having an influence on the growth properties, the bacterial suspensions are applied to agar plates containing ethanol, but without test substance.
(§5) After the plates have been incubated, the growth of the bacteria on the test-substance-containing plates is compared with that of the control plates.

[2] = system: Staphylococcus hominis DSM 20328; conditions: DSM20328, Example 3, according to Example 2, read-out: MIC SH = Staphylococcus hominis DSM 20328
Description: as §1, §2, §3, §4, §5

[3] = system: Aspergillus niger ATCC 6275; conditions: ATCC6275, Example 3, according to Example 2
Description: as §1, §2, §3, §4, §5

[4] = system: Candida albicans ATCC 10231; conditions: ATCC10231, Example 3, according to Example 2, read-out: MIC CA = Candida albicans ATCC 10231
Description: as §1, §2, §3, §4, §5

[5] = system: Escherichia coli NCTC 8196; conditions: NCTC8196, Example 3, according to Example 2, read-out: MIC EC = Escherichia coli NCTC 8196
Description: as §1, §2, §3, §4, §5

[6] = system: Corynebacterium xerosis ATCC 373; conditions: ATCC373, Table 1, 36° C., read-out: MIC (Minimum Inhibitory Concentration) Corynebacterium xerosis ATCC 373
Description: as §1, §2, §3, §4, §5

[7] = system: Staphylococcus hominis DSM 20330; conditions: DSM20330, Table 1, 36° C., read-out: MIC (Minimum Inhibitory Concentration) Staphylococcus hominis DSM 20330
Description: as §1, §2, §3, §4, §5

[8] = ATCC6538, Example 3, according to Example 2, read-out: MIC SA = Staphylococcus aureus ATCC 6538

| Compound | MIC [1, 8] [µg/mL] | MIC [2] [µg/mL] | MIC [3] [µg/mL] | MIC [4] [µg/mL] | MIC [5] [µg/mL] | MIC [6] [µg/mL] | MIC ([1]; ATCC6538, read-out: MIC (Minimum Inhibitory Concentration) Staphylococcus aureus ATCC 6538) [µg/mL] | MIC [7] [µg/mL] |
| --- | --- | --- | --- | --- | --- | --- | --- | --- |
| Oc1c(-c2ccccc2)nsc1Sc1snc(-c2ccccc2)c1O [(107)] | 5 (≈ 13 µM) | 5 (≈ 13 µM) | – | – | – | – | – | – |
| Cc1snc(-c2ccccc2)c1O [(105)] | 50 (≈ 261 µM) | – | 10 (≈ 52.3 µM) | 50 (≈ 261 µM) | 50 (≈ 261 µM) | – | – | – |
| CCc1snc(-c2ccccc2)c1O [(106)] | 500 (≈ 2440 µM) | 500 (≈ 2440 µM) | 100 (≈ 487 µM) | 500 (≈ 2440 µM) | 500 (≈ 2440 µM) | – | – | – |
| O=C(c1ccc(F)cc1)c1snc(-c2ccc(F)cc2)c1O [(108)] | – | – | – | 100 (≈ 315 µM) | – | – | – | – |
| Oc1c(-c2ccccc2)nsc1-c1ccccc1 [(102)] | 10 (≈ 39.5 µM) | 50 (≈ 197 µM) | 13 (≈ 51.3 µM) | 50 (≈ 197 µM) | 5 (≈ 19.7 µM) | – | – | – |
| Oc1c(-c2ccccc2)nsc1-c1ccccc1 [(101), 3,5-diphenyl-4-hydroxyisothiazole] | – | – | – | – | – | 5 (≈ 19.7 µM) | 5 (≈ 19.7 µM) | 50 (≈ 197 µM) |
| Oc1c(-c2ccc(F)cc2)nsc1Sc1snc(-c2ccc(F)cc2)c1O [(109)] | – | 2 (≈ 4.76 µM) | – | – | – | – | – | – |
| Oc1csnc1Cc1ccccc1 [(104)] | 50 (≈ 261 µM) | – | 500 (≈ 2610 µM) | 500 (≈ 2610 µM) | 250 (≈ 1310 µM) | – | – | – |
| Oc1csnc1-c1ccccc1 [(103)] | 50 (≈ 282 µM) | – | 100 (≈ 564 µM) | 250 (≈ 1410 µM) | 250 (≈ 1410 µM) | – | – | – |
